From paper PMC8284931 (Journal of biomolecular screening, 2012)
Counter-ions that a name gives are not always drawn. Like-named read-outs stand apart in the source and are kept apart here. Values belong to the compound of their own block, whether it stands above or below them.

Columns and labels:
[1] = reported, no reference given, cited from earlier work
P-glycoprotein = details: result in words; cited from earlier work
[2] = target: T1, mammalian GUS purified from Bovine taurus liver (Bos taurus, UniProt A3KMY8); test: B. taurus GUS enzyme assay; format: biochemical; details: for activity against purified mammalian GUS: result in words
T1 sequence (A3KMY8 1-652): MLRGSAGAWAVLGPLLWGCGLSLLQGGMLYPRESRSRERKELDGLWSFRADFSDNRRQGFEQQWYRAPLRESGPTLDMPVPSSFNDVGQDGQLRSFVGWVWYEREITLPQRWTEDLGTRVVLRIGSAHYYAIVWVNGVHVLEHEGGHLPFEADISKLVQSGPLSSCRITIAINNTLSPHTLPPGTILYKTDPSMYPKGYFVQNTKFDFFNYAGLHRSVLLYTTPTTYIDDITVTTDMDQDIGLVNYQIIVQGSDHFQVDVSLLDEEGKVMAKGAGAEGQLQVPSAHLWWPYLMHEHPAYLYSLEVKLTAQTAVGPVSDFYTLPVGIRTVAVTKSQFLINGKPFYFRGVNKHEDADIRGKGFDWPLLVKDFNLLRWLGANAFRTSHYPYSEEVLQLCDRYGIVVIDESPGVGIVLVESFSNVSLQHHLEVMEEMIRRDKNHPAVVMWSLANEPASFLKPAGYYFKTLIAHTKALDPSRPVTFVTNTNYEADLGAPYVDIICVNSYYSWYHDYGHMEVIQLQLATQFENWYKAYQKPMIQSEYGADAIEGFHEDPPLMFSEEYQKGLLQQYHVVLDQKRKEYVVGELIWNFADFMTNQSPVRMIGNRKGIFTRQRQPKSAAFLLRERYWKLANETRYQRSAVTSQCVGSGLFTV

E. coli cells = test: Toxicity assay; details: MTS, 50 μg/ml, positive control
[3] = target: purified E. coli GUS enzyme (Escherichia coli, UniProt P05804); test: E. coli GUS enzyme assay; format: biochemical
[4] = target: endogenous GUS in living intact E. coli (DH5α) (Escherichia coli, UniProt P05804); test: E. coli cell-based GUS activity assay; details: IC50 shift; for fold less potent in cell-based assay compared to E. coli GUS enzyme assay: less potent in cells
in vitro = details: E. coli
[5] = tested on: MAO (MAO-A, MAO-B or total activity); details: read-out: IC50 for MAO; depending on subclass of MAO-A or MAO-B, or total activity; reported, no reference given; cited from earlier work

endogenous GUS in living intact E. coli (DH5α), sequence (P05804 whole entry): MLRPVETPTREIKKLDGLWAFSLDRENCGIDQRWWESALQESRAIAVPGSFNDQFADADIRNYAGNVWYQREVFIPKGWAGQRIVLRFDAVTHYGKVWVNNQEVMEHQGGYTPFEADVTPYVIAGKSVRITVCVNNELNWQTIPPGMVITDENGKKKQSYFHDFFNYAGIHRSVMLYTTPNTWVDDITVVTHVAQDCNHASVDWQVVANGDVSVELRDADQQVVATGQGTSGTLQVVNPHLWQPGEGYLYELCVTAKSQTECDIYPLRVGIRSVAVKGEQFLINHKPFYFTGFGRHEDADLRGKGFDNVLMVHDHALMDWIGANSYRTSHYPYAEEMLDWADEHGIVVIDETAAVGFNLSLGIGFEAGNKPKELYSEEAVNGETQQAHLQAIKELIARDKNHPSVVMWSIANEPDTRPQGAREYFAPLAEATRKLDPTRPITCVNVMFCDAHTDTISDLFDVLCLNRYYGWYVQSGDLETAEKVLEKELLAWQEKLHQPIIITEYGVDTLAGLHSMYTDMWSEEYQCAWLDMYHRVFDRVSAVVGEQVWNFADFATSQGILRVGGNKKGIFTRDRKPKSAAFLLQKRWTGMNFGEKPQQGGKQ
purified E. coli GUS enzyme, sequence (P05804 whole entry): as above

Compound: Clc1ccc2c(c1)C(N1CCNCC1)=Nc1ccccc1O2 [Amoxapine, amoxapine]
normal blood levels ([1]; converted from μg/ml): 54 to 669 nM
normal blood levels [1]: 0.017 to 0.21 µg/mL
inhibition of P-glycoprotein (P-glycoprotein): potent non-competitive inhibitors

IC50 [2]: > 100000 nM
activity against purified mammalian GUS [2]: no significant activity
Compound: Cc1cc(C(=O)NNCc2ccccc2)no1 [Isocarboxazid, isocarboxazid]

Compound: NC[C@H]1O[C@H](O[C@H]2[C@H](O)[C@@H](O[C@H]3O[C@H](CO)[C@@H](O)[C@H](N)[C@H]3O)[C@H](N)C[C@@H]2N)[C@H](O)[C@@H](O)[C@@H]1O [Kanamycin, kanamycin]
reduction of activity in viability assay (E. coli cells): over 90%

Compound: CN1CCN(C2=Nc3ccccc3Oc3ccc(Cl)cc32)CC1 [Loxapine, loxapine]
inhibition of P-glycoprotein (P-glycoprotein): potent non-competitive inhibitors
loss in potency versus amoxapine ([3]; E. coli GUS enzyme assay, methyl group on the piperazine ring): > 250 fold

Compound: OC(c1cc(C(F)(F)F)nc2c(C(F)(F)F)cccc12)C1CCCCN1 (stereo not drawn) [Mefloquine, mefloquine hydrochloride]
fold less potent in cell-based assay compared to E. coli GUS enzyme assay [4]: over 4.9 fold
fold less potent in cell-based assay compared to E. coli GUS enzyme assay ([4]; listed as mefloquine): 5 fold
viability at 2 h, 10 µM (in vitro): 100%

Compound: O=C(CCNNC(=O)c1ccncc1)NCc1ccccc1 [Nialamide, nialamide]
fold more potent in cell-based assay compared to E. coli GUS enzyme assay ([4]; more potent in cells): 4 fold
activity against purified mammalian GUS [2]: no significant activity

Compound: NNCCc1ccccc1 [Phenelzine, phenelzine]
IC50 [5]: 70 to 900 nM
inhibition in Prestwick collection screen ([3]; single point, 10 μM compound, high throughput GUS enzyme assay, 10 µM): > 50%
